The source made the active and inactive calls. The calls are words filed in the database; no cut-off is given here.
Columns and labels:
[1] = biological target: T1, Bromodomain-containing protein 4 (Homo sapiens, UniProt O60885); assay: Inhibition of BRD4 BD1 (unknown origin) using biotin labelled NeC: SGRG-K(Ac)-GG-K(Ac)-GLG-K(Ac)-GGA-K(Ac)-RHRKVGG-K as substrate preincubated for 15 mins followed by substrate addition measured after 30 mins by alpha screen assay
[2] = biological target: T1, Bromodomain-containing protein 4; assay: Inhibition of BRD4 BD1 (unknown origin) at 50 uM using biotin labelled NeC: SGRG-K(Ac)-GG-K(Ac)-GLG-K(Ac)-GGA-K(Ac)-RHRKVGG-K as substrate preincubated for 15 mins followed by substrate addition measured after 30 mins by alpha screen assay relative to control
[3] = biological target: T1, Bromodomain-containing protein 4; assay: Inhibition of BRD4 BD1 (unknown origin) at 10 uM using biotin labelled NeC: SGRG-K(Ac)-GG-K(Ac)-GLG-K(Ac)-GGA-K(Ac)-RHRKVGG-K as substrate preincubated for 15 mins followed by substrate addition measured after 30 mins by alpha screen assay relative to control
MV4-11 = assay: Antiproliferative activity against human MV4-11 cells after 72 hrs by CellTiter Glo luminescent assay; assay type: functional, cell-based; conditions: MV4-11, 72 h
MDA-MB-231 = assay: Antiproliferative activity against human MDA-MB-231 cells after 72 hrs by CellTiter Glo luminescent assay; assay type: functional, cell-based; conditions: MDA-MB-231, 72 h
MM1.S = assay: Antiproliferative activity against human MM1S cells after 72 hrs by CellTiter Glo luminescent assay; assay type: functional, cell-based
[4] = biological target: T1, Bromodomain-containing protein 4; assay: Inhibition of BRD4 in human MDA-MB-231 cells assessed as down regulation of c-myc at 3.125 to 50 uM after 6 hrs by Western blot analysis; assay type: cell-based
[5] = biological target: T1, Bromodomain-containing protein 4; assay: Inhibition of BRD4 in human MV4-11 cells assessed as down regulation of c-myc at 3.125 to 50 uM after 6 hrs by Western blot analysis; assay type: cell-based
[6] = Half life in human hepatocytes at 1 uM up to 120 mins by LC/MS analysis; assay type: ADME, cell-based, Hepatocyte
[7] = biological target: T1, Bromodomain-containing protein 4
Description: Stabilization of BRD4 BD1 (unknown origin) assessed as change in melting temperature at protein to test compound molar ratio of 1:40 by SYPRO Orange dye based fluorescence analysis

[8] = biological target: T1, Bromodomain-containing protein 4; assay: Inhibition of recombinant full length human N-terminal His6-tagged BRD4 (2 to 1362 residues) expressed in baculovirus infected insect cells using histone H4 peptide as substrate by alpha screen assay
[9] = biological target: T1, Bromodomain-containing protein 4; assay: Inhibition of BRD4 in human MV4-11 cells assessed as down regulation of c-myc after 6 hrs by Western blot analysis; assay type: cell-based
[10] = biological target: T1, Bromodomain-containing protein 4; assay: Inhibition of BRD4 in human MM1S cells assessed as down regulation of c-myc after 6 hrs by Western blot analysis; assay type: cell-based
hERG (KCNH2) = hERG (KCNH2) (Homo sapiens, UniProt Q12809); assay: in vitro; conditions: CHO cells expressing human ERG
Description: Inhibition of human ERG expressed in CHO cells at 40 uM at -80 mV holding potential after 2.5 mins by Qpatch clamp assay relative to control

[11] = biological target: T1, Bromodomain-containing protein 4; assay: Stabilization of BRD4 BD1 (unknown origin) assessed as change in melting temperature at protein to test compound molar ratio of 1:80 by SYPRO Orange dye based fluorescence analysis
[12] = biological target: T1, Bromodomain-containing protein 4; assay: Stabilization of BRD4 BD1 (unknown origin) assessed as change in melting temperature at protein to test compound molar ratio of 1:20 by SYPRO Orange dye based fluorescence analysis
[13] = biological target: T1, Bromodomain-containing protein 4; assay: Stabilization of BRD4 BD1 (unknown origin) assessed as change in melting temperature at protein to test compound molar ratio of 1:10 by SYPRO Orange dye based fluorescence analysis

hERG (KCNH2), sequence (Q12809 whole entry): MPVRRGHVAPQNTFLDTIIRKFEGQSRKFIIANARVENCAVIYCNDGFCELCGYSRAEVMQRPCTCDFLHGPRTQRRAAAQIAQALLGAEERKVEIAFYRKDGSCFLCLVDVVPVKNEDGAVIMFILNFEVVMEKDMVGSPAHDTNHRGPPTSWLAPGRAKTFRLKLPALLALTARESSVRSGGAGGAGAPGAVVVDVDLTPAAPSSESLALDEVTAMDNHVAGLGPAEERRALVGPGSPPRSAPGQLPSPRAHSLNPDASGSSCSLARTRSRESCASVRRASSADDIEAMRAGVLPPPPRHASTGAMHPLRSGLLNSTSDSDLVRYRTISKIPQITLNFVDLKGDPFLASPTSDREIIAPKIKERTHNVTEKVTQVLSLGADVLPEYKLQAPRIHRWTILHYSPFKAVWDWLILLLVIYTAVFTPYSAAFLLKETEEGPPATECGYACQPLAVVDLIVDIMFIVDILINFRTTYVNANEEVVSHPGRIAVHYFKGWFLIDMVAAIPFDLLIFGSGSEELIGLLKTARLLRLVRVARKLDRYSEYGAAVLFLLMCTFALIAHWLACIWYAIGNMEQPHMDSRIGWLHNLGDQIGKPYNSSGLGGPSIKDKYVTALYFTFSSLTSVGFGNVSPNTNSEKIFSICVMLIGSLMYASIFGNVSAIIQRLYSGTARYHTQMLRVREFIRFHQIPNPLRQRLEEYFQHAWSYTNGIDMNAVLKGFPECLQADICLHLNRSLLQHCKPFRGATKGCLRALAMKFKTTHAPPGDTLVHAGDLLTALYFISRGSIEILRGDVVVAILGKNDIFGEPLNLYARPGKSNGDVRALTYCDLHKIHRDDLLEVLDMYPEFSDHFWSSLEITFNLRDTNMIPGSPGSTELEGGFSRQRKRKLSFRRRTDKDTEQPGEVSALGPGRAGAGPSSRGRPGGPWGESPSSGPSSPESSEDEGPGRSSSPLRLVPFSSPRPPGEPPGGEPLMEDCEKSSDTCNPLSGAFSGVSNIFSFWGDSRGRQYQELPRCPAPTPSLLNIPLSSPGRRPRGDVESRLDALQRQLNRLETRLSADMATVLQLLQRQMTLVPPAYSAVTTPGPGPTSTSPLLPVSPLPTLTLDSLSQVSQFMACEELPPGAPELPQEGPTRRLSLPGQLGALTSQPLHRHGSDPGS

Oc1ccc(CN2CCCCCC2)c2cccnc12
IC50 [1]: 670 nM
inhibition [2]: 46 to 99%

Nc1ccc(-c2nc3ccc(-c4nc5ccc(N)cc5[nH]4)cc3[nH]2)cc1
inhibition [3]: -0%

Cc1ccc2c(Cn3ccnc3)ccc(O)c2n1
inhibition [3]: 41%

O=[N+]([O-])c1ccc2c(c1)ncn2Cc1ccc(O)c2ncccc12
IC50 [1]: 107 nM
IC50 (MV4-11): 1 µM
IC50 (MDA-MB-231): 1.1 µM
IC50 (MM1.S): 10900 nM
inhibition [4]: inactive
inhibition [5]: Active
half-life at 1 µM [6]: 27 min
ΔTm [7]: 4 °C

Cc1cc2ncn(Cc3ccc(O)c4ncccc34)c2cc1C
inhibition [3]: 23%

Cc1cc(O)c2cccc(O)c2n1
inhibition [2]: -0%

Cc1cc(C)n(-c2ccc3c(Cl)cc(Cl)c(O)c3n2)n1
inhibition [3]: -0%

O=S(=O)(O)c1ccc(/N=N/c2ccc(O)c3ncccc23)cc1
inhibition [3]: -0%

CCOC(=O)C1CCCN(Cc2ccc(O)c3ncccc23)C1 (stereo not drawn)
IC50 [1]: 738 nM
inhibition [2]: 97.8%

O=[N+]([O-])c1cc([N+](=O)[O-])c2cccnc2c1O
inhibition [3]: 27%

Oc1ccc(CSc2ccccc2)c2cccnc12
IC50 [1]: 3000 nM
inhibition [3]: 86%

O=C(Oc1ccc(Cn2ccnc2)c2cccnc12)c1ccccc1
IC50 [1]: 67 nM
IC50 (MV4-11): 9 µM
IC50 (MDA-MB-231): 12.3 µM
IC50 (MM1.S): 2900 nM
half-life at 1 µM [6]: 1.4 min
ΔTm [7]: 3.8 °C

Nc1cc(S(=O)(=O)O)c2cccnc2c1O
inhibition [3]: -0%

Oc1cccc2ccc(N3CCCCC3)nc12
inhibition [3]: -0%

COc1ccc(C)cc1/N=N/c1ccc(O)c2nc(C=O)ccc12
inhibition [3]: 20%

CCCOCc1ccc(O)c2ncccc12
IC50 [1]: 2100 nM
inhibition [3]: 96%

CC(=O)Oc1ccc(Cn2cnc(F)c2)c2cccnc12
IC50 [1]: 70 nM
IC50 (MV4-11): 2.9 µM
IC50 (MDA-MB-231): 2.2 µM
IC50 (MM1.S): 1100 nM
ΔTm [7]: 4.7 °C

O=C(Cc1ccccc1)N/N=C/c1ccc(O)c2ncccc12
IC50 [1]: 4700 nM
inhibition [3]: 82%

CC(C)(C)OC(=O)Oc1ccc(Cn2ccnc2)c2cccnc12
IC50 [1]: 176 nM
IC50 (MV4-11): 11.5 µM
IC50 (MDA-MB-231): 31.5 µM
IC50 (MM1.S): 1800 nM
ΔTm [7]: 4.5 °C

Oc1c(Br)cc(Br)cc1/C=C/c1ccc2cccc(O)c2n1
inhibition [2]: -0%

Oc1ccc(CN2CCn3c(nnc3C(F)(F)F)C2)c2cccnc12
IC50 [1]: 68 nM
IC50 (MV4-11): 22.4 µM
ΔTm [7]: 4.9 °C

O=[N+]([O-])c1cccc(S(=O)(=O)Nc2ccc(O)c3ncccc23)c1
inhibition [3]: -0%

Oc1ccc(CNc2ccc(Cl)cn2)c2cccnc12
inhibition [3]: 12%

O=S(=O)(Nc1ccc(O)c2ncccc12)c1ccc(Cl)cc1
inhibition [3]: -0%

Oc1ccc(Cn2c(-c3cscn3)nc3ccccc32)c2cccnc12
IC50 [1]: 73 nM
IC50 (MV4-11): 1.5 µM
IC50 (MDA-MB-231): 3.7 µM
IC50 (MM1.S): 2100 nM
ΔTm [7]: 4.7 °C

O=C(C[n+]1cccc2cccc(O)c21)c1ccc(Cl)cc1
inhibition [2]: -0%

Cc1ccc(C(=O)C[n+]2cccc3cccc(O)c32)cc1
inhibition [2]: -0%

Oc1ccc(CNc2ccccc2Br)c2cccnc12
inhibition [2]: 46%

COc1nnc2ccc(N3CCC(c4ccc(OCCN5CCN(C)C(=O)C5C)cc4)CC3)nn12 (stereo not drawn)
IC50 [8]: 1.7 nM

CC(=O)Oc1ccc(Cn2ccnc2)c2cccnc12
IC50 [1]: 61 nM
IC50 (MV4-11): 28.5 µM
ΔTm [7]: 4.3 °C

O=c1oc2ccc(Cl)cc2n1Cc1ccc(O)c2ncccc12
inhibition [3]: 16%

Oc1ccc(CNc2cccc(C(F)(F)F)c2)c2cccnc12
IC50 [1]: 4800 nM
inhibition [3]: 84%

CC1=NN(c2ccc3cccc(O)c3n2)C(=O)C1
IC50 [1]: 1000 nM
inhibition [3]: 99%

Oc1ccc(Cn2cnc(F)c2)c2cccnc12
IC50 [1]: 70 nM
IC50 (MV4-11): 2.2 µM
IC50 (MDA-MB-231): 34.3 µM
IC50 (MM1.S): 1200 nM
inhibition [9]: Dose-dependent effect
inhibition [10]: Dose-dependent effect
half-life at 1 µM [6]: 23 min
ΔTm [7]: 4.6 °C
inhibition at 2.5 min, 40 µM (hERG (KCNH2)): 10%

CN(C)c1ccc2cccc(O)c2n1
inhibition [3]: -0%

O=C(CCc1ccccc1)N/N=C/c1ccc(O)c2ncccc12
IC50 [1]: 4300 nM
inhibition [3]: 86%

CC(C)(CCl)C(=O)Oc1ccc(Cn2ccnc2)c2cccnc12
IC50 [1]: 54 nM
IC50 (MV4-11): 8.9 µM
IC50 (MDA-MB-231): 12.4 µM
IC50 (MM1.S): 3600 nM
ΔTm [7]: 2.4 °C

CC(C)(C)OC(=O)Oc1ccc(Cn2c(-c3cscn3)nc3ccccc32)c2cccnc12
inhibition [3]: 11%

Oc1ccc(CNc2ccc(C(F)(F)F)cc2)c2cccnc12
IC50 [1]: 4800 nM

Cc1cc(C)c2ccc(/C=N/O)nc2c1O
inhibition [3]: 6%

O=C(C[n+]1cccc2cccc(O)c21)c1ccc(F)cc1
inhibition [2]: -0%

Cn1c(/N=N/c2ccc(O)c3ncccc23)nc2ccccc21
IC50 [1]: 370 nM
inhibition [3]: 100%

Oc1ccc(Cn2cnc3ccccc32)c2cccnc12
IC50 [1]: 337 nM
IC50 (MV4-11): 1 µM
IC50 (MDA-MB-231): 4.7 µM
IC50 (MM1.S): 3000 nM
inhibition [9]: Dose-dependent effect
inhibition [10]: Dose-dependent effect
half-life at 1 µM [6]: 31 min
ΔTm [7]: 3.1 °C
inhibition at 2.5 min, 40 µM (hERG (KCNH2)): 33%

O=[N+]([O-])c1cccc(-c2ccc(/C=C/c3ccc4cccc(O)c4n3)o2)c1
inhibition [2]: -0%

Oc1cccc2ccc(/C=C/c3cccc(OCc4ccccc4Cl)c3)nc12
inhibition [2]: -0%

Cc1cc(C)c2ccc(NN)nc2c1O
IC50 [1]: 18000 nM
inhibition [2]: 88%

Oc1ccc(CSc2nc3ccccc3s2)c2cccnc12
inhibition [3]: 18%

Cc1nnn(C)c1-c1cnc2c3ccc(C(C)(C)O)cc3n(C(c3ccccc3)C3CCOCC3)c2c1 (stereo not drawn)
IC50 [8]: < 5 nM

C=CC[n+]1cccc2cccc(O)c21
inhibition [2]: -0%

Oc1ccc(COn2nnc3ccccc32)c2cccnc12
IC50 [1]: 82 nM
IC50 (MV4-11): 12.7 µM
ΔTm [7]: 4.4 °C

COc1ccc(C)cc1/N=N/c1ccc(O)c2nc(/C=N/O)ccc12
inhibition [3]: 24%

O=[N+]([O-])c1ccc(O)c2ncccc12 [NITROXOLINE]
IC50 (MV4-11): 4.9 µM
ΔTm [7]: 3.9 °C

O=C1c2ccccc2C(=O)N1Cc1ccc(O)c2ncccc12
inhibition [3]: 30%

O=C(N/N=C/c1ccc(O)c2ncccc12)c1cccc(Br)c1
IC50 [1]: 5200 nM
inhibition [3]: 73%

Nc1ccc2c(Cn3ccnc3)ccc(O)c2n1
IC50 [1]: 292 nM
IC50 (MV4-11): 20.4 µM
ΔTm [7]: 3.8 °C

COC(=O)C(O)(c1cc(C)c2cccnc2c1O)C(F)(F)F (stereo not drawn)
inhibition [2]: 97%

Cc1cc(C)c2ccc(C=O)nc2c1O
inhibition [3]: -0%

Oc1ccc(Cn2ccnc2)c2cccnc12
IC50 [1]: 101 nM
IC50 (MV4-11): 27 µM
half-life at 1 µM [6]: 21 min
ΔTm [11]: 5 °C
ΔTm [12]: 2.8 °C
ΔTm [13]: 1.8 °C
ΔTm [7]: 3.9 °C
inhibition at 2.5 min, 40 µM (hERG (KCNH2)): 10%

O=C(C[n+]1cccc2cccc(O)c21)c1ccccc1
inhibition [2]: -0%

Oc1ccc(Cn2cccn2)c2cccnc12
IC50 [1]: 76 nM
IC50 (MV4-11): 1.6 µM
IC50 (MDA-MB-231): 3.6 µM
IC50 (MM1.S): 700 nM
ΔTm [7]: 4.5 °C
inhibition at 2.5 min, 40 µM (hERG (KCNH2)): 8.3%

N=C(N)NCCC[C@H](NC(=O)CCC(=O)OC[N+]1(c2cc(=O)c3cccc(-c4ccccc4)c3o2)CCOCC1)C(=O)NCC(=O)N[C@@H](CC(=O)O)C(=O)N[C@@H](CO)C(=O)[O-] [SF-1126]
IC50 [8]: 5300 nM

Oc1c(Br)cc(/C=C/c2ccc3cccc(O)c3n2)cc1Br
inhibition [2]: -0%

Oc1ccc(Cn2nnc3ccccc32)c2cccnc12
IC50 [1]: 155 nM
IC50 (MV4-11): 1 µM
IC50 (MDA-MB-231): 1.3 µM
IC50 (MM1.S): 300 nM
ΔTm [7]: 4.3 °C
inhibition at 2.5 min, 40 µM (hERG (KCNH2)): 24%

Cc1ccc2c(Cn3cnc(F)c3)ccc(OC(=O)OC(C)(C)C)c2n1
IC50 [1]: 46 nM
IC50 (MV4-11): 2.9 µM
IC50 (MDA-MB-231): 2.7 µM
IC50 (MM1.S): 1100 nM
half-life at 1 µM [6]: 1.6 min
ΔTm [7]: 4.6 °C

Oc1cccc2ccc(/C=C/c3ccc(-c4cccc(Br)c4)o3)nc12
inhibition [2]: < 7.8%

O=S(=O)(O)c1ccc2cccc(O)c2n1
inhibition [2]: 47.4%

O=C1c2ccccc2C(=O)N1CCCOc1ccc(Cn2ccnc2)c2cccnc12
inhibition [3]: 21%

Oc1ccc(Cn2cncn2)c2cccnc12
IC50 [1]: 95 nM
IC50 (MV4-11): 5.2 µM
IC50 (MDA-MB-231): 6.7 µM
IC50 (MM1.S): 4300 nM
ΔTm [7]: 3.2 °C

CCOc1c(Br)cc(Br)cc1/C=C/c1ccc2cccc(O)c2n1
inhibition [2]: -0%

Cc1sc2c(c1C)C(c1ccccc1)=N[C@@H](CC(=O)OC(C)(C)C)c1nnc(C)n1-2
IC50 [8]: 33 nM

O=C1CN(Cc2ccc(O)c3ncccc23)Cc2ncccc2N1
IC50 [1]: 92 nM
IC50 (MV4-11): 9.6 µM
ΔTm [7]: 4.3 °C
